Target: T1, PHKG1 (Homo sapiens, UniProt Q16816)
T1 construct: purchased Thermo Fisher Scientific (Life Technologies) SelectScreen
Experiment: SelectScreen Z'LYTE
Type: biochemical
Outline: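 SelectScreen broad panel; activity (Z'LYTE, Adapta) plus binding formats. ATP: Km app for CSF1R Z'LYTE; 10 for CAMK1 Adapta. Readout = % per kinase.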

T1 sequence (Q16816 whole entry): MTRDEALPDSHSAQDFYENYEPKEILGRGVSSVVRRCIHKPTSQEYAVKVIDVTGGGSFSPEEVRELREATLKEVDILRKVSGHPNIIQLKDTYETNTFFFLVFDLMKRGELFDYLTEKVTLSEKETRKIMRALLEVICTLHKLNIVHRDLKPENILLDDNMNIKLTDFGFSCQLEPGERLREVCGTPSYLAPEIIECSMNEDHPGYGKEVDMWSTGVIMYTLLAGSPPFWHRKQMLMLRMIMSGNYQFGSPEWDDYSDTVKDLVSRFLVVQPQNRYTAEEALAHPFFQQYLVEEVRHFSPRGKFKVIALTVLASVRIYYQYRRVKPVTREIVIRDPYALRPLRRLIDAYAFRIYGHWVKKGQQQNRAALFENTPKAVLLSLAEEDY

CN(C(=O)CN1CCOCC1)c1ccc2sc3c(-c4cccc5c(=O)cc(N6CC7CCC(C6)O7)oc45)cccc3c2c1 [NU5455]
inhibition at 1 µM: -5%

— publication PMC6934184, “Selective DNA-PKcs inhibition extends the therapeutic index of localized radiotherapy and chemotherapy” (The Journal of Clinical Investigation, 2019)
